Laboratory results reported in the supplement of paper PMC10307832.

Columns and labels:
Experiment in all cases: relative viability (nuclei count vs DMSO), 5 days (fraction); higher = more cells survive
[1] = test system: NCI-H1792; conditions: first compound 1 µM
How it was run: (§1)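 Lung cancer cell lines in 1536-well plates were dosed by pin tool the day after seeding, either with one drug alone or with a fixed anchor-drug dose plus five library-drug doses (not always all listed) in √10 steps. After 5 days, cells were fixed and their nuclei stained in one step (final 0.05% Triton X-100, 1% formaldehyde, 1 ug/ml Hoechst), then counted on 4× images. Relative viability is the nuclei count in treated wells divided by that in vehicle wells. Values are medians of duplicate plates.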

[2] = test system: NCI-H1793
How it was run: as §1

[3] = test system: NCI-H2347
How it was run: as §1

[4] = test system: NCI-H2009
How it was run: as §1

[5] = test system: NCI-H838
How it was run: as §1

[6] = test system: NCI-H2170
How it was run: as §1

[7] = test system: SK-MES-1
How it was run: as §1

[8] = test system: NCI-H1355
How it was run: as §1

[9] = test system: NCI-H1993
How it was run: as §1

[10] = test system: HCC-15
How it was run: as §1

[11] = test system: NCI-H2228
How it was run: as §1

[12] = test system: NCI-H522
How it was run: as §1

In the case of O=c1cc(N2CCOCC2)oc2c(-c3cccc4c3sc3ccccc34)cccc12 + Cc1nc(Nc2ncc(C(=O)Nc3c(C)cccc3Cl)s2)cc(N2CCN(CCO)CC2)n1 [Dasatinib] (partner 0.075 µM), the relative viability [1] is reported as 0.788, the relative viability ([2]; first compound 0.01 µM) is reported as 0.372 and the relative viability ([2]; first compound 0.1 µM) is reported as 0.394. For the same molecule, the relative viability ([2]; first compound 0.3162 µM) was 0.314, the relative viability ([2]; first compound 1 µM) was 0.405 and the relative viability ([3]; first compound 0.01 µM) was 0.316. For the same molecule, the relative viability ([3]; first compound 0.03162 µM) was 0.284, the relative viability ([3]; first compound 0.1 µM) was 0.265 and the relative viability ([3]; first compound 0.3162 µM) was 0.315. The relative viability ([3]; first compound 1 µM) was 0.283, the relative viability ([4]; first compound 0.01 µM) was 0.317 and the relative viability ([4]; first compound 0.03162 µM) was 0.268. The relative viability ([4]; first compound 0.1 µM) was 0.303, the relative viability ([4]; first compound 0.3162 µM) was 0.277 and the relative viability ([4]; first compound 1 µM) was 0.256. For the same molecule, the relative viability ([5]; first compound 0.01 µM) was 0.278, the relative viability ([5]; first compound 0.03162 µM) was 0.301 and the relative viability ([5]; first compound 0.1 µM) was 0.319. For the same molecule, the relative viability ([5]; first compound 0.3162 µM) was 0.294, the relative viability ([5]; first compound 1 µM) was 0.271 and the relative viability ([6]; first compound 0.01 µM) was 0.574. For the same molecule, the relative viability ([6]; first compound 0.03162 µM) was 0.569, the relative viability ([6]; first compound 0.1 µM) was 0.728 and the relative viability ([6]; first compound 0.3162 µM) was 0.557. For the same molecule, the relative viability ([6]; first compound 1 µM) was 0.621, the relative viability ([7]; first compound 0.01 µM) was 0.413 and the relative viability ([7]; first compound 0.03162 µM) was 0.363. It also gave a relative viability ([7]; first compound 0.1 µM) of 0.349, a relative viability ([7]; first compound 0.3162 µM) of 0.447 and a relative viability ([7]; first compound 1 µM) of 0.337. The relative viability ([8]; first compound 0.01 µM) was 0.789, the relative viability ([8]; first compound 0.03162 µM) was 0.692 and the relative viability ([8]; first compound 0.1 µM) was 0.695. It also gave a relative viability ([8]; first compound 0.3162 µM) of 0.731, a relative viability ([8]; first compound 1 µM) of 0.682 and a relative viability ([9]; first compound 0.01 µM) of 0.603. For the same molecule, the relative viability ([9]; first compound 0.03162 µM) was 0.595, the relative viability ([9]; first compound 0.1 µM) was 0.657 and the relative viability ([9]; first compound 0.3162 µM) was 0.554. The relative viability ([9]; first compound 1 µM) was 0.597, the relative viability ([10]; first compound 0.01 µM) was 0.63 and the relative viability ([10]; first compound 0.03162 µM) was 0.675. For the same molecule, the relative viability ([10]; first compound 0.1 µM) was 0.697, the relative viability ([10]; first compound 0.3162 µM) was 0.577 and the relative viability ([10]; first compound 1 µM) was 0.602. For the same molecule, the relative viability ([11]; first compound 0.01 µM) was 0.538, the relative viability ([11]; first compound 0.03162 µM) was 0.416 and the relative viability ([11]; first compound 0.1 µM) was 0.49. For the same molecule, the relative viability ([11]; first compound 0.3162 µM) was 0.523, the relative viability ([11]; first compound 1 µM) was 0.543 and the relative viability ([12]; first compound 0.01 µM) was 1.01. For the same molecule, the relative viability ([12]; first compound 0.03162 µM) was 0.915, the relative viability ([12]; first compound 0.1 µM) was 0.797 and the relative viability ([12]; first compound 0.3162 µM) was 0.859. For the same molecule, the relative viability ([12]; first compound 1 µM) was 0.745.
